# Measured values: patent publication US5451571A (The Cleveland Clinic Foundation, priority 1994, dated 1995)
# “Also recorded” adds a separate entry of the source.
# Legend:
# [1] = biological target: T1, angiotensin converting enzyme (ACE) (Canis lupus familiaris, UniProt A0A8I3S3I6); assay: ACE activity assay (Hip-His-Leu, fluorometric) in dog brain tissue homogenates; format: biochemical; settings: 10 μM MK 422; read-out: inhibition of product released (ACE activity)
# T1 construct: The ACE activity was determined by incubating 10 μl of the supernatants; from tissue; host or cells: dog brainstem, spinal cord, choroid plexus and neurohypophysis punches
# T1 sequence (A0A8I3S3I6 31-1241): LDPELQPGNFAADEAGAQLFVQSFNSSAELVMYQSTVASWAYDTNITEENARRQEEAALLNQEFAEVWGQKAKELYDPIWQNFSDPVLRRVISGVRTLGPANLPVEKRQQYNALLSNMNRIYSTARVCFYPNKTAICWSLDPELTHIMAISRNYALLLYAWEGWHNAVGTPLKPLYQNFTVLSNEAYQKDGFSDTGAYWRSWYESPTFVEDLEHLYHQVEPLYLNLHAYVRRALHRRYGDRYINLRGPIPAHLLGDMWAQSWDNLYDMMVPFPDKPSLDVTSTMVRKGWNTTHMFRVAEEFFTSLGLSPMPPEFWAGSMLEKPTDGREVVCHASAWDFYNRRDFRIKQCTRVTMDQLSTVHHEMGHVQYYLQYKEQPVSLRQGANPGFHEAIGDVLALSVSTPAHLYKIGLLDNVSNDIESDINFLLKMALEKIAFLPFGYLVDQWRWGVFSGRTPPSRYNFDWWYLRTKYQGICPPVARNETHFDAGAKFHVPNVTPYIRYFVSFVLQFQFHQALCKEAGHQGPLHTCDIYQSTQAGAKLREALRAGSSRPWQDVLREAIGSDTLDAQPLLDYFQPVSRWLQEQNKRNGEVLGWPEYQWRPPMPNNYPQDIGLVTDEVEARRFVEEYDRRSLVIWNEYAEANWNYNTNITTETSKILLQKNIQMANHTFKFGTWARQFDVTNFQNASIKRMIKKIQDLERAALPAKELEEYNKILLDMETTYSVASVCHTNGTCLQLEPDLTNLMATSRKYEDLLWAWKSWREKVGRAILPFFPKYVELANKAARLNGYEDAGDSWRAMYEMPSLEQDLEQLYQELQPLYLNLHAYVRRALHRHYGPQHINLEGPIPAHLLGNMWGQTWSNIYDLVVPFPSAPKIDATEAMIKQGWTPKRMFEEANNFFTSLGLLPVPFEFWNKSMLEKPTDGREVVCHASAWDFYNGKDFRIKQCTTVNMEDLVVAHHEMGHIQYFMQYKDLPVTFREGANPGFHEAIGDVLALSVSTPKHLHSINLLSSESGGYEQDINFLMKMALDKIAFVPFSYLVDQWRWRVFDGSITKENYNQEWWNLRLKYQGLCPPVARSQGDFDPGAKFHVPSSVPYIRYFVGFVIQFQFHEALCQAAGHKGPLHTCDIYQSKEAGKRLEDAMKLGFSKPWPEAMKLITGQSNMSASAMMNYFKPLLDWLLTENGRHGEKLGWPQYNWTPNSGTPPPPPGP
# Method: Larger tissue samples were homogenized to a final concentration of 100 mg tissue ml/buffer. The homogenates were centrifuged at 18,000 g for two minutes at 4° C. The ACE activity was determined by incubating 10 μl of the supernatants with 500 μl of an assay solution containing 5 mM Hip-His-Leu (Sigma Chemical, St. Louis, Mo., USA) in 0.4 M sodium borate buffer, pH 8.3, and 0.9 M NaCl for 15 minutes at 37° C.) (Santos R. A. S., Krieger, E. M., Greene, L. J., An Improved Fluorometric Assay of Rat Serum and Plasma Converting Enzyme. […] The product His-Leu was measured fluorometrically (365 nm excitation, 495 emission; Aminco spectrofluorometer, American Instruments, Silver Springs, Md., USA). In punches obtained from the brainstem, neurohypophysis, and choroid plexus, the rate of reaction was linear over a 20-minute period and with the volume of the sample assayed (5-15 ul). Under these conditions, hydrolysis of the product His-Leu (Sigma) was less than 6% as evaluated indirectly fluorometry (Santos, et al. supra). […] Tissue ACE specific activity was expressed as units corresponding to 1 nmol/min/mg protein.
# [2] = biological target: T1, angiotensin converting enzyme (ACE); assay: Tissue ACE activity in dog brain six hours after i.v. MK 422; format: in vivo; settings: six hours after MK 422 10 mg/kg i.v.
# Method: Experiments were performed on fourteen mongrel dogs weighing 16±2 kg and anesthetized with sodium pentobarbital (30 mg/kg i.v.). […] Ten of the fourteen dogs were given a lethal dose of sodium pentobarbital, and the brain and thoracic portion of the spinal cord (C6-T3) were excised immediately. The brain was removed from four other dogs six hours after a single injection of MK 422 (enalaprilat) at a dose of 10 mg/kg i.v.
# Coronal sections (2000 μm thick) from either the brainstem or the spinal cord were laid on a frozen Petri dish placed under the operating microscope. […] Punches from coronal sections of the intermediolateral column of the spinal cord were obtained between C6 and T3. Blocks of tissue were also taken from the area postrema at the obex, the neurohypophysis, and the choroid plexus in the fourth ventricle. Remaining coronal tissue sections were analyzed separately. All tissue samples were kept on dry ice and stored at -70° C. until assayed.
# The ACE activity and angiotensin metabolism were measured in tissue samples obtained from five control and four MK 422-treated dogs.
# Larger tissue samples were homogenized to a final concentration of 100 mg tissue ml/buffer. The homogenates were centrifuged at 18,000 g for two minutes at 4° C. The ACE activity was determined by incubating 10 μl of the supernatants with 500 μl of an assay solution containing 5 mM Hip-His-Leu (Sigma Chemical, St. Louis, Mo., USA) in 0.4 M sodium borate buffer, pH 8.3, and 0.9 M NaCl for 15 minutes at 37° C.) (Santos R. A. S., Krieger, E. M., Greene, L. J., An Improved Fluorometric Assay of Rat Serum and Plasma Converting Enzyme. […] The product His-Leu was measured fluorometrically (365 nm excitation, 495 emission; Aminco spectrofluorometer, American Instruments, Silver Springs, Md., USA). […] Under these conditions, hydrolysis of the product His-Leu (Sigma) was less than 6% as evaluated indirectly fluorometry (Santos, et al. supra). […] Tissue ACE specific activity was expressed as units corresponding to 1 nmol/min/mg protein.
# [3] = system: spontaneously hypertensive rats (SHR); assay: Blood angiotensin peptides (RIA) after i.v. Ang I in conscious SHR with enzyme inhibitors; format: in vivo, rat
# Method: (§1) All experiments were carried out in strict adherence to the principles sponsored by the American Physiological Society. Male 16-week-old SHR(319±4 gm) and WKY(315±4 gm) controls (Charles River, Wilmington, Mass.) were housed in rooms maintained on a 12 hr light-dark cycle. Animals ate a solid diet of rat chow (Purina, Bedford, Ohio) and had free access to water. Cannulas (PE-50 and PE-10, Clay Adams Becton Dickinson, Parsippany, N.J.) were implanted into a femoral artery and vein using aseptic conditions in rats anesthetized with 1% halothane 24 hours beforehand. The free ends of the cannulas were tunneled under the skin and externalized at the back of the neck.
# (§2) Conscious rats were divided into five groups. Group I (n=4 SHR and 4 WKY) received an i.v. injection of 0.9% NaCl. Group II (n=4 SHR and 4 WKY) was given an i.v. injection of enalaprilat (MK-422,2 mg/kg). Group III (n=4 SHR and 4 WKY) was injected with (N-{N-[1-(S)-carboxy-3-phenylpropyl]-(S)-phenylalanyl}-(S)-isoserine) at a dose of 15 mg/kg. […] Group IV (n=4 SHR and 4 WKY) received both MK-422 (2 mg/kg) and SCH 39,370 (15 mg/kg). Group V (n=3 SHR and 3 WKY) were given MK- 422 (2 mg/kg) and Z-prolyl-prolinal (5 mg/kg), a specific inhibitor of prolyl endopeptidase (Friedman TC, Orlowski M, Wilk S: Prolyl Endopeptidase: Inhibition in vivo by N-benzyloxycarbonyl-prolyl-prolinal. J. Neurochem. 42:237-241,1984). Either saline (vehicle) or the enzyme inhibitors were administered 20 minutes before an i.v. injection of 0.2 ml of Ang I (2 nmol) in heparinized saline. Serial samples of arterial blood (0.2 ml) were rapidly collected into ice-chilled tubes containing 5 ml of 80% ethanol/0.1N HCL every 15-30 sec before and after injection of Ang I. The amount of blood removed in each sample was replaced with an equal volume of saline. The dead space (0.08 ml) of the femoral artery catheter was cleared of any remaining saline or blood before obtaining the samples.
# (§3) Peptide Extraction and Analyses: Samples were centrifuged at 5,000 g for 20 minutes; the supernatant was stored for 12 hours at -20° C. After a second centrifugation step (10,000 g, 20 min) the supernatant was diluted 1:1 (V:V) with 1% heptaflurobutyric acid (HFBA), stored for 4-6 […] hours at 4° C., and centrifuged again at 15,000 g. This supernatant was further diluted 1:4 with 0.2% HFBA and concentrated on a Sep-Pak Vac Cartridge (Millipore Co., Milford, Mass.) activated beforehand with 3 ml of 60% acetonitrile/0.2% HFBA, 3 ml of 0.1% bovine serum albumin in 0.2% HFBA, and 5 ml of HFBA. After application of the supernatant, the column was washed with 10 ml of 0.2% HFBA. Angiotensin peptides were eluted with 8 ml of 60% acetonitrile/0.2% HFBA. Fractions were evaporated to dryness in a vacuum centrifuge (Savant Instrument Inc., Hicksville, N.Y.) for measurements by radioimmunoassay (RIA). Different aliquots of the samples were assayed to ensure linearity. Peptide recovery for Ang I added to the acid ethanol solution prior to blood sample averaged 85±4%, n=6, SFM): peptide values were not corrected for recovery. Moreover, no in vitro conversion of Ang I into either Ang-(1-7) or Ang II was observed.
# (§4) The RIAs employed by the inventors to determine concentrations of Ang I, Ang II, and Ang-(1-7) are described in detail elsewhere. See, Chappell MC, Brosnihan KB, Diz DI, Ferrario CM: Identification of Angiotensin-(1-7) in Rat Brain: Evidence for Differential Processing of Agiotensin Peptides. J. Biol. Chem. […]:16518-16523,1989; and, Kohara K, Brosnihan KB, Chappell MC, Khosla MC, Ferrario CM: Angiotensin-(1-7): A Member of Circulating Angiotensin Peptides. Hypertension 17:131-138, 1991. […] The sensitivity of the Ang I assay (defined as twice the minimum detection level) averaged 5 fmol/tube. The Ang II antibody was produced by the inventors. […] The sensitivity of the Ang II RIA is 0.5 fmol/tube. The antibody of Ang-(1-7) (Core No. 1) was obtained in the inventors laboratory. […]
# Wistar Kyoto (WKY) rats = assay: Blood angiotensin peptides (RIA) after i.v. Ang I in conscious WKY with enzyme inhibitors; format: in vivo, rat
# Method: as §1, §2, §3, §4
# prolylendopeptidase = assay: 125I-Ang-(1-7) production from 125I-Ang I in dog hypothalamus homogenates (HPLC); format: biochemical
# Method: As a result of these discoveries, the enzyme(s) involved in the production of Ang-(1-7) in homogenates (20 mM TRIS HCl buffer, pH 7.5) of dog hypothalamus were evaluated.
# NG108 cells = assay: Ang-(1-7) production from Ang I in NG108 cells; format: cell-based
# SHR = assay: Blood pressure effect of SCH 39,370 in SHR; format: in vivo, rat
# NEP 24.11 = settings: cited from earlier work
# ACE = ACE (Homo sapiens, UniProt P12821); settings: cited from earlier work
# carboxypeptidase A = biological target: T2, carboxypeptidase A (Homo sapiens, UniProt P15085); settings: cited from earlier work
# T2 sequence (P15085 111-419): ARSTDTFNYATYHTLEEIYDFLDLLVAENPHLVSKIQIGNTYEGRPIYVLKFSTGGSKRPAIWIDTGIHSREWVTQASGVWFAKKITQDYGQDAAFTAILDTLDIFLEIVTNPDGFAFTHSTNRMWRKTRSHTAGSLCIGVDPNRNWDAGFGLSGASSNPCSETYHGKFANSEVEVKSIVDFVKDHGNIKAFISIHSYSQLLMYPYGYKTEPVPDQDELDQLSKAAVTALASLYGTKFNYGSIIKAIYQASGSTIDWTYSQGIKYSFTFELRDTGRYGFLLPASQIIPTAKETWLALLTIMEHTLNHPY
# [4] = system: DOCA-salt hypertensive rats; settings: cited from earlier work
# Sequence of ACE (P12821 30-1306, species assumed): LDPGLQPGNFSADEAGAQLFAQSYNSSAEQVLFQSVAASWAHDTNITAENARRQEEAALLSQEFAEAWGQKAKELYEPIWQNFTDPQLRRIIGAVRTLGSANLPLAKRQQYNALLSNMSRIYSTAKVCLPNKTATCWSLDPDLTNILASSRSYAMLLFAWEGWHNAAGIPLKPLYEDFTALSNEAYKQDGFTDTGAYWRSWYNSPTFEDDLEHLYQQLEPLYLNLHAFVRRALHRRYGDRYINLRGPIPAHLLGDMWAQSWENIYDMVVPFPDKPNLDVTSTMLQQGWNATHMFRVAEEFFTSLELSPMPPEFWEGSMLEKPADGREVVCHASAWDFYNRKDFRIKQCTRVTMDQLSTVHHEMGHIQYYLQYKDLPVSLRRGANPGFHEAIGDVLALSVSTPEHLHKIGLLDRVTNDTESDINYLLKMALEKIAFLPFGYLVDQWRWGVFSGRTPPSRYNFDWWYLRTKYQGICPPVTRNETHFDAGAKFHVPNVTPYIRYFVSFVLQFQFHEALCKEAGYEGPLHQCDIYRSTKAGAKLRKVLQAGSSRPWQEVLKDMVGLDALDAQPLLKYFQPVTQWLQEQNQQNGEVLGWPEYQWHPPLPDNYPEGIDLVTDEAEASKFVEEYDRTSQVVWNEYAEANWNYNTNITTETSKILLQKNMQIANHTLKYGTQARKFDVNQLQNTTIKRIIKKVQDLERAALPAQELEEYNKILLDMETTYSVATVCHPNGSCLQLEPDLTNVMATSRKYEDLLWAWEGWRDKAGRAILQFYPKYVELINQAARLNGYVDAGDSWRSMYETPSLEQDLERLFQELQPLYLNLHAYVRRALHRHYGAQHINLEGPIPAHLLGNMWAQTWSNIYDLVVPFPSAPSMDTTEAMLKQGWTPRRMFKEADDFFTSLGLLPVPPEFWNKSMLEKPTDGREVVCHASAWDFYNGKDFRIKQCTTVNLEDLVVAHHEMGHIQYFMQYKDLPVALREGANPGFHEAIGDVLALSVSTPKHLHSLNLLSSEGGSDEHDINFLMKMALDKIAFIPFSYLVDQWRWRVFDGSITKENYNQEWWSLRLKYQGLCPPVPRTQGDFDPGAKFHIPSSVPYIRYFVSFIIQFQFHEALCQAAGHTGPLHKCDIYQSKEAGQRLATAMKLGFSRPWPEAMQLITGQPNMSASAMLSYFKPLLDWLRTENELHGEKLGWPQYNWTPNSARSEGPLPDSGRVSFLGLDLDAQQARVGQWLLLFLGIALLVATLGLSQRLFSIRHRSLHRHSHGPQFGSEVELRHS
smiles,measurement,setting,value
"C[C@H](N[C@@H](CCc1ccccc1)C(=O)O)C(=O)N1CCC[C@H]1C(=O)O [MK 422, enalaprilat]",inhibition at 10 µM,[1],98%
same,ACE activity in homogenates from the choroid plexus,[2],14.9±0.6 U
same,ACE activity in other regions of the brainstem,[2],did not change
same,ACE activity in the A2 region (between -2 and +4 mm of the obex),[2]; untreated controls 22.5±1.6 U,16.7±1.7 U
same,increase of peak Ang-(1-7) over values found in control rats,"[3]; SHR, MK-422 2 mg/kg",three-fold
same,Ang II formation / production,"[3]; SHR, after Ang I 2 nmol i.v.",eliminated
same,increase of peak Ang-(1-7) over values found in control rats,Wistar Kyoto (WKY) rats; MK-422 2 mg/kg,two-fold
same,Ang II formation / production,Wistar Kyoto (WKY) rats; after Ang I 2 nmol i.v.,eliminated
CC(C)C[C@H](NP(=O)(O)O[C@@H]1O[C@@H](C)[C@H](O)[C@@H](O)[C@H]1O)C(=O)N[C@@H](Cc1c[nH]c2ccccc12)C(=O)O [Phosphoramidon],inhibition of Ang-(1-7) formation,prolylendopeptidase,12%
same,production of Ang-(1-7) in the presence of the inhibitor,prolylendopeptidase; canine hypothalamic homogenates,not inhibited
same,production of Ang-(1-7) in the presence of the inhibitor,NG108 cells,not inhibited
"O=C(O)[C@H](CCc1ccccc1)N[C@@H](Cc1ccccc1)C(=O)NC[C@H](O)C(=O)O [SCH 39,370, N-{N-[1-(S)-carboxy-3-phenylpropyl]-(S)-phenylalanyl}-(S)-isoserine]",reduction of peak levels of Ang-(1-7) below vehicle,[3]; SHR,74%
same,peak level of Ang I in blood,"[3]; SHR, 15 seconds after Ang I 2 nmol i.v., saline (label Ang I) or SCH 39,370 15 mg/kg 20 minutes before",6.2 ± 0.4 pmol/mL
same,peak level of Ang II in blood,"[3]; SHR, 15 seconds after Ang I 2 nmol i.v., saline (label Ang I) or SCH 39,370 15 mg/kg before",27.2 ± 3.8 pmol/mL
same,change of baseline and peak plasma levels of Ang II,"[3]; SHR, SCH 39,370",double
same,formation / levels of Ang-(1-7) versus vehicle,"[3]; SHR, SCH 39,370 15 mg/kg alone, difference statistically significant",decreased; also recorded: inhibited the formation of Ang-(1-7)
same,baseline level of Ang II,"[3]; SHR, after SCH 39,370 15 mg/kg, before 0.02±0.02",0.18 ± 0.04 pmol/mL
same,inhibition of Ang-(1-7) production at larger doses,"[3]; preliminary experiments, doses above 15 mg/kg, strain not stated",no further inhibition
same,reduction of peak levels of Ang-(1-7) below vehicle,Wistar Kyoto (WKY) rats,51%
same,peak level of Ang I in blood,"Wistar Kyoto (WKY) rats; 15 seconds after Ang I 2 nmol i.v., saline (label Ang I) or SCH 39,370 15 mg/kg 20 minutes before",4.3 ± 0.4 pmol/mL
same,peak level of Ang II in blood,"Wistar Kyoto (WKY) rats; 15 seconds after Ang I 2 nmol i.v., saline (label Ang I) or SCH 39,370 15 mg/kg before",21.8 ± 5.4 pmol/mL
same,change of baseline and peak plasma levels of Ang II,"Wistar Kyoto (WKY) rats; SCH 39,370",double
same,formation of Ang-(1-7) versus vehicle,"Wistar Kyoto (WKY) rats; SCH 39,370 15 mg/kg alone, difference not significant (p>0.05)",inhibited the formation of Ang-(1-7)
same,baseline level of Ang II,"Wistar Kyoto (WKY) rats; after SCH 39,370 15 mg/kg, before 0.04±0.02",0.12 ± 0.04 pmol/mL
same,effect on blood pressure,SHR,did not reduce blood pressure
same,inhibition of NEP 24.11,NEP 24.11,specific and potent inhibitor
same,inhibition of ACE,ACE,does not inhibit
same,inhibition of carboxypeptidase A,carboxypeptidase A,does not inhibit
same,effect on blood pressure,[4],antihypertensive effects
